Read-outs that look alike come from different tables or passages of the source.
Legend:
Assay type in all cases: in vivo
[1] = test system: Kochia (Kochia scoparia); experiment: Test A preemergence; settings: Bassia scoparia, pre-emergence, 240 h; for pest or weed control at 125 g/ha: 125 g ai/ha; for pest or weed control at 500 g/ha: 500 g ai/ha, visual injury rating about 10 d after treatment, 0 to 100 scale (0 no effect, 100 complete control)
Method in brief: (§1)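 Each rating is a visual injury score from 0 to 100 given about 10 d after treatment, judged against untreated controls kept alongside in the greenhouse. In loam soil–sand blend, seeds got a preemergence directed soil spray, while postemergence plants were 2 to 10 cm tall at spraying.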

[2] = test system: barnyardgrass (Echinochloa crus-galli); experiment: Test A preemergence; settings: Echinochloa crus-galli, pre-emergence, 240 h; for pest or weed control at 125 g/ha: 125 g ai/ha; for pest or weed control at 500 g/ha: 500 g ai/ha, visual injury rating about 10 d after treatment, 0 to 100 scale (0 no effect, 100 complete control)
Method in brief: as §1

[3] = test system: pigweed (Amaranthus retroflexus); experiment: Test A preemergence; settings: Amaranthus retroflexus, pre-emergence, 240 h; for pest or weed control at 125 g/ha: 125 g ai/ha; for pest or weed control at 500 g/ha: 500 g ai/ha, visual injury rating about 10 d after treatment, 0 to 100 scale (0 no effect, 100 complete control)
[4] = test system: ragweed (common ragweed, Ambrosia elatior); experiment: Test A preemergence; settings: Ambrosia artemisiifolia, pre-emergence, 240 h; for pest or weed control at 125 g/ha: 125 g ai/ha; for pest or weed control at 500 g/ha: 500 g ai/ha, visual injury rating about 10 d after treatment, 0 to 100 scale (0 no effect, 100 complete control)
Method in brief: as §1

[5] = test system: ryegrass, Italian (Italian ryegrass, Lolium multiflorum); experiment: Test A preemergence; settings: Lolium multiflorum, pre-emergence, 240 h; for pest or weed control at 125 g/ha: 125 g ai/ha; for pest or weed control at 500 g/ha: 500 g ai/ha, visual injury rating about 10 d after treatment, 0 to 100 scale (0 no effect, 100 complete control)
Method in brief: as §1

[6] = test system: Galium (catchweed bedstraw, Galium aparine); experiment: Test A postemergence; settings: Galium, post-emergence, 240 h; for pest or weed control at 125 g/ha: 125 g ai/ha
Method in brief: as §1

[7] = test system: Kochia (Kochia scoparia); experiment: Test A postemergence; settings: Bassia scoparia, post-emergence, 240 h; for pest or weed control at 125 g/ha: 125 g ai/ha
Method in brief: as §1

[8] = test system: barnyardgrass (Echinochloa crus-galli); experiment: Test A postemergence; settings: Echinochloa crus-galli, post-emergence, 240 h; for pest or weed control at 125 g/ha: 125 g ai/ha
Method in brief: as §1

[9] = test system: blackgrass (Alopecurus myosuroides); experiment: Test A postemergence; settings: Alopecurus myosuroides, post-emergence, 240 h; for pest or weed control at 125 g/ha: 125 g ai/ha
Method in brief: as §1

[10] = test system: corn (Zea mays); experiment: Test A postemergence; settings: Zea mays, post-emergence, 240 h
Method in brief: as §1

[11] = test system: giant foxtail (Setaria faberii); experiment: Test A postemergence; settings: Setaria faberi, post-emergence, 240 h; for pest or weed control at 125 g/ha: 125 g ai/ha
Method in brief: as §1

[12] = test system: pigweed (Amaranthus retroflexus); experiment: Test A postemergence; settings: Amaranthus retroflexus, post-emergence, 240 h; for pest or weed control at 125 g/ha: 125 g ai/ha
Method in brief: as §1

[13] = test system: ragweed (common ragweed, Ambrosia elatior); experiment: Test A postemergence; settings: Ambrosia artemisiifolia, post-emergence, 240 h; for pest or weed control at 125 g/ha: 125 g ai/ha
Method in brief: as §1

[14] = test system: ryegrass, Italian (Italian ryegrass, Lolium multiflorum); experiment: Test A postemergence; settings: Lolium multiflorum, post-emergence, 240 h; for pest or weed control at 125 g/ha: 125 g ai/ha
Method in brief: as §1

[15] = test system: wheat (Triticum aestivum); experiment: Test A postemergence; settings: Triticum aestivum, post-emergence, 240 h; for plant injury at 125 g/ha: 125 g ai/ha
Method in brief: as §1

[16] = preemergence, read-out: Kochia plant response rating
[17] = preemergence, read-out: Barnyardgrass plant response rating
[18] = preemergence, read-out: Pigweed plant response rating
[19] = preemergence, read-out: Ragweed plant response rating
[20] = preemergence, read-out: Ryegrass, Italian plant response rating

CC(C)Oc1ccc([C@H]2CN(C)C(=O)[C@@H]2C(=O)Nc2ccc(F)cc2F)cc1 [Compound 954]
pest or weed control at 125 g/ha ([1]; Preemergence, visual injury rating after approximately 10 d, read-out: Kochia plant response rating (0 to 100 scale, 0 is no effect, 100 is complete control)): 0%
pest or weed control at 500 g/ha [1, 16]: 20%
pest or weed control at 125 g/ha ([2]; Preemergence, visual injury rating after approximately 10 d, read-out: Barnyardgrass plant response rating (0 to 100 scale, 0 is no effect, 100 is complete control)): 70%
pest or weed control at 500 g/ha [2, 17]: 90%
pest or weed control at 125 g/ha ([3]; Preemergence, visual injury rating after approximately 10 d, read-out: Pigweed plant response rating (0 to 100 scale, 0 is no effect, 100 is complete control)): 0%
pest or weed control at 500 g/ha [3, 18]: 0%
pest or weed control at 125 g/ha ([4]; Preemergence, visual injury rating after approximately 10 d, read-out: Ragweed plant response rating (0 to 100 scale, 0 is no effect, 100 is complete control)): 0%
pest or weed control at 500 g/ha [4, 19]: 0%
pest or weed control at 125 g/ha ([5]; Preemergence, visual injury rating after approximately 10 d, read-out: Ryegrass, Italian plant response rating (0 to 100 scale, 0 is no effect, 100 is complete control)): 0%
pest or weed control at 500 g/ha [5, 20]: 0%
pest or weed control at 125 g/ha ([6]; Postemergence, visual injury after approximately 10 d, 0 to 100 scale where 0 is no effect and 100 is complete control, read-out: Plant response rating, Galium): 0%
pest or weed control at 125 g/ha ([7]; Postemergence, visual injury after approximately 10 d, 0 to 100 scale where 0 is no effect and 100 is complete control, read-out: Plant response rating, Kochia): 0%
pest or weed control at 125 g/ha ([8]; Postemergence, visual injury after approximately 10 d, 0 to 100 scale where 0 is no effect and 100 is complete control, read-out: Plant response rating, Barnyardgrass): 60%
pest or weed control at 125 g/ha ([9]; Postemergence, visual injury after approximately 10 d, 0 to 100 scale where 0 is no effect and 100 is complete control, read-out: Plant response rating, Blackgrass): 0%
Corn plant response rating (crop injury, 0 = no effect, 100 = complete kill) at 125 g/ha ([10]; 125 g ai/ha, Postemergence, visual injury after approximately 10 d, 0 to 100 scale where 0 is no effect and 100 is complete control): 0%
pest or weed control at 125 g/ha ([11]; Postemergence, visual injury after approximately 10 d, 0 to 100 scale where 0 is no effect and 100 is complete control, read-out: Plant response rating, Foxtail, Giant): 60%
pest or weed control at 125 g/ha ([12]; Postemergence, visual injury after approximately 10 d, 0 to 100 scale where 0 is no effect and 100 is complete control, read-out: Plant response rating, Pigweed): 0%
pest or weed control at 125 g/ha ([13]; Postemergence, visual injury after approximately 10 d, 0 to 100 scale where 0 is no effect and 100 is complete control, read-out: Plant response rating, Ragweed): 0%
pest or weed control at 125 g/ha ([14]; Postemergence, visual injury after approximately 10 d, 0 to 100 scale where 0 is no effect and 100 is complete control, read-out: Plant response rating, Ryegrass, Italian): 0%
plant injury at 125 g/ha ([15]; Postemergence, visual injury after approximately 10 d, 0 to 100 scale where 0 is no effect and 100 is complete control, read-out: Plant response rating, Wheat): 0%

Cc1cc([C@H]2CN(C)C(=O)[C@@H]2C(=O)Nc2ccc(F)cc2F)ccc1Br [Compound 1100]
pest or weed control at 125 g/ha ([1]; preemergence, 0 to 100 scale where 0 is no effect and 100 is complete control, approx. 10 d, read-out: Kochia plant response rating): 50%
pest or weed control at 500 g/ha [1, 16]: 60%
pest or weed control at 125 g/ha ([2]; preemergence, 0 to 100 scale where 0 is no effect and 100 is complete control, approx. 10 d, read-out: Barnyardgrass plant response rating): 90%
pest or weed control at 500 g/ha [2, 17]: 90%
pest or weed control at 125 g/ha ([3]; preemergence, 0 to 100 scale where 0 is no effect and 100 is complete control, approx. 10 d, read-out: Pigweed plant response rating): 0%
pest or weed control at 500 g/ha [3, 18]: 0%
pest or weed control at 125 g/ha ([4]; preemergence, 0 to 100 scale where 0 is no effect and 100 is complete control, approx. 10 d, read-out: Ragweed plant response rating): 0%
pest or weed control at 500 g/ha [4, 19]: 0%
pest or weed control at 125 g/ha ([5]; preemergence, 0 to 100 scale where 0 is no effect and 100 is complete control, approx. 10 d, read-out: Ryegrass, Italian plant response rating): 0%
pest or weed control at 500 g/ha [5, 20]: 30%
pest or weed control at 125 g/ha ([6]; postemergence, visual injury on 0 to 100 scale (0 no effect, 100 complete control), approx. 10 d, read-out: Galium plant response rating): 0%
pest or weed control at 500 g/ha ([6]; 500 g ai/ha, postemergence, 0 to 100 scale, 0 is no effect, 100 is complete control, read-out: Galium plant response rating): 20%
pest or weed control at 125 g/ha ([7]; postemergence, visual injury on 0 to 100 scale (0 no effect, 100 complete control), approx. 10 d, read-out: Kochia plant response rating): 0%
pest or weed control at 500 g/ha ([7]; 500 g ai/ha, postemergence, 0 to 100 scale, 0 is no effect, 100 is complete control, read-out: Kochia plant response rating): 20%
pest or weed control at 125 g/ha ([8]; postemergence, visual injury on 0 to 100 scale (0 no effect, 100 complete control), approx. 10 d, read-out: Barnyardgrass plant response rating): 60%
pest or weed control at 500 g/ha ([8]; 500 g ai/ha, postemergence, 0 to 100 scale, 0 is no effect, 100 is complete control, read-out: Barnyardgrass plant response rating): 70%
pest or weed control at 125 g/ha ([9]; postemergence, visual injury on 0 to 100 scale (0 no effect, 100 complete control), approx. 10 d, read-out: Blackgrass plant response rating): 0%
pest or weed control at 500 g/ha ([9]; 500 g ai/ha, postemergence, 0 to 100 scale, 0 is no effect, 100 is complete control, read-out: Blackgrass plant response rating): 20%
plant injury at 125 g/ha ([10]; 125 g ai/ha, postemergence, visual injury on 0 to 100 scale (0 no effect, 100 complete control), approx. 10 d, read-out: Corn plant response rating): 0%
plant injury at 500 g/ha ([10]; 500 g ai/ha, postemergence, 0 to 100 scale, 0 is no effect, 100 is complete control, read-out: Corn plant response rating): 20%
pest or weed control at 125 g/ha ([11]; postemergence, visual injury on 0 to 100 scale (0 no effect, 100 complete control), approx. 10 d, read-out: Foxtail, Giant plant response rating): 70%
pest or weed control at 500 g/ha ([11]; 500 g ai/ha, postemergence, 0 to 100 scale, 0 is no effect, 100 is complete control, read-out: Foxtail, Giant plant response rating): 70%
pest or weed control at 125 g/ha ([12]; postemergence, visual injury on 0 to 100 scale (0 no effect, 100 complete control), approx. 10 d, read-out: Pigweed plant response rating): 0%
pest or weed control at 500 g/ha ([12]; 500 g ai/ha, postemergence, 0 to 100 scale, 0 is no effect, 100 is complete control, read-out: Pigweed plant response rating): 0%
pest or weed control at 125 g/ha ([13]; postemergence, visual injury on 0 to 100 scale (0 no effect, 100 complete control), approx. 10 d, read-out: Ragweed plant response rating): 0%
pest or weed control at 500 g/ha ([13]; 500 g ai/ha, postemergence, 0 to 100 scale, 0 is no effect, 100 is complete control, read-out: Ragweed plant response rating): 0%
pest or weed control at 125 g/ha ([14]; postemergence, visual injury on 0 to 100 scale (0 no effect, 100 complete control), approx. 10 d, read-out: Ryegrass, Italian plant response rating): 20%
pest or weed control at 500 g/ha ([14]; 500 g ai/ha, postemergence, 0 to 100 scale, 0 is no effect, 100 is complete control, read-out: Ryegrass, Italian plant response rating): 20%
plant injury at 125 g/ha ([15]; postemergence, visual injury on 0 to 100 scale (0 no effect, 100 complete control), approx. 10 d, read-out: Wheat plant response rating): 0%
plant injury at 500 g/ha ([15]; 500 g ai/ha, postemergence, 0 to 100 scale, 0 is no effect, 100 is complete control, read-out: Wheat plant response rating): 20%
